Measurements published in ChEMBL document CHEMBL1201862, “PubChem BioAssay data set” (2004).
The source made the active and inactive calls.

How the values were obtained:
[1] = biological target: Megakaryocyte-associated tyrosine-protein kinase (Homo sapiens, UniProt P42679); type: functional;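 further: affinity measured as one member of a kinase panel (Navigating the Kinome) against MATK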
[2] = biological target: 5'-AMP-activated protein kinase catalytic subunit alpha-1 (Homo sapiens, UniProt Q13131); type: functional
[3] = biological target: Serine/threonine-protein kinase PLK4 (Homo sapiens, UniProt O00444); type: functional;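 further: PLK4 measured as one member of a kinome-wide kinase profiling panel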
[4] = biological target: Death-associated protein kinase 3 (Homo sapiens, UniProt O43293); type: functional;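 further: measured as one member of a kinome-wide profiling panel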
[5] = biological target: Mitogen-activated protein kinase 8 (Homo sapiens, UniProt P45983); type: functional;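 further: value comes from one member of a kinome-wide kinase profiling panel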
[6] = biological target: Tyrosine-protein kinase BTK (Homo sapiens, UniProt Q06187); type: functional
[7] = biological target: Casein kinase II subunit alpha (Homo sapiens, UniProt P68400); type: functional
[8] = biological target: Calcium/calmodulin-dependent protein kinase type II subunit delta (Homo sapiens, UniProt Q13557); type: functional
[9] = biological target: Proto-oncogene tyrosine-protein kinase Src (Homo sapiens, UniProt P12931); type: functional;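 further: SRC entry within a kinome-wide kinase profiling panel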
[10] = biological target: Tyrosine-protein kinase receptor UFO (Homo sapiens, UniProt P30530); type: functional
[11] = biological target: Large T antigen (Simian virus 40, UniProt P03070); type: functional, Betapolyomavirus macacae;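 further: Confirmatory-stage PubChem screen for compounds that inhibit SV40 T antigen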
[12] = biological target: Estrogen receptor beta (Homo sapiens, UniProt Q92731); test: blockers of SRC-3 recruitment to ERβ – biochemical, ELISA, streptavidin-HRP readout, orthogonal assay, confirmation (AID 1060)
[13] = biological target: T1, Streptokinase A (Streptococcus pyogenes serotype M1, UniProt P10520); test: viability-normalized secreted streptokinase activity reduction – plasminogen activation absorbance, OD405, dose response (AID 1914); type: functional, Streptococcus pyogenes M1 GAS;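 further: secreted streptokinase activity via plasminogen activation per viability signal from cell pellet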
T1 sequence (P10520 whole entry): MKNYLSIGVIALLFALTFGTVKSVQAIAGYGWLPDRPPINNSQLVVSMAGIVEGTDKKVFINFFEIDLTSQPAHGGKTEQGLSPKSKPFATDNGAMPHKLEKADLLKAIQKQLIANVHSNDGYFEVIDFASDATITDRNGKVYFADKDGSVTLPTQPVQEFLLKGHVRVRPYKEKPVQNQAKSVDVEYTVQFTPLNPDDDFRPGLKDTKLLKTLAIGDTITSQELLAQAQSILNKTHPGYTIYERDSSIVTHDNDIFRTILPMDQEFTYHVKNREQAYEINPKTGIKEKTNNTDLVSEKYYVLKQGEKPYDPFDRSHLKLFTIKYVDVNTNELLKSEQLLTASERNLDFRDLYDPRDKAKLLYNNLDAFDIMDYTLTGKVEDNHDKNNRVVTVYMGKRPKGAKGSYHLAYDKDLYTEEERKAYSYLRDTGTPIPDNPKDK

[14] = biological target: T2, Hexokinase HKDC1 (Homo sapiens, UniProt Q2TB90); test: inhibition of HKDC1 glucose phosphorylation – biochemical, W721R variant, dose response (AID 504729); type: functional
T2 sequence (Q2TB90 whole entry): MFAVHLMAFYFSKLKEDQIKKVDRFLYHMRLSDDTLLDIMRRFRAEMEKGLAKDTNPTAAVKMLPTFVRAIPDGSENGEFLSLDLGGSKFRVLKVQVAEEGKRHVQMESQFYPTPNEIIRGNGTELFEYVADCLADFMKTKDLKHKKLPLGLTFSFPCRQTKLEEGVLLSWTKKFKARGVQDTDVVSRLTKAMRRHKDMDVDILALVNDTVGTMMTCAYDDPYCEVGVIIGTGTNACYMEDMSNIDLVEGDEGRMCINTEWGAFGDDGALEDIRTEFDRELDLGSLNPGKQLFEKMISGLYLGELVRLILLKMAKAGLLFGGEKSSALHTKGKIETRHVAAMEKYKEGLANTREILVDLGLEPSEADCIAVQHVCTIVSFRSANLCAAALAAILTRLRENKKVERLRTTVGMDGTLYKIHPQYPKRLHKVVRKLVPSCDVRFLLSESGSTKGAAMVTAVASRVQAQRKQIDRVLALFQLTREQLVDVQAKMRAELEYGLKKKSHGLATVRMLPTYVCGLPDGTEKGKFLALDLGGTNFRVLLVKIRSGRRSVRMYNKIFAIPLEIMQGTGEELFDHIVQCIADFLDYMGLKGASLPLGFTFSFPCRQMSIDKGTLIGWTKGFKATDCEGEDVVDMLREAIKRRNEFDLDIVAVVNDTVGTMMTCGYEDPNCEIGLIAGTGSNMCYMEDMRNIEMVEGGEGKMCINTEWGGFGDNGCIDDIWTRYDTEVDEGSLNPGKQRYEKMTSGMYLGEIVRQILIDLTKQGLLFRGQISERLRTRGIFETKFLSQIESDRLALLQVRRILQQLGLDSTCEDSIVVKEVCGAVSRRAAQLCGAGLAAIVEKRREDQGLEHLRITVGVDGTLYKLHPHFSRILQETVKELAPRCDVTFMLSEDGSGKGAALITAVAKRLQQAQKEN

[15] = test system: Vero; test: viability of Vero cells under compound – cytotoxicity control for flavivirus capping enzyme inhibitors (AID 588742); type: functional; details: Chlorocebus sabaeus
[16] = test system: Vero; test: cells; type: functional; details: Chlorocebus sabaeus
[17] = biological target: Fatty acid synthase (Homo sapiens, UniProt P49327); test: inhibition of human FAS-TE enzyme activity – biochemical, endpoint fluorescence intensity, uHTS hits, dose response (AID 624327); type: functional;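 further: fluorescence from hydrolysis of an O-methyl fluorescein acyl ester substrate by the enzyme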
[18] = biological target: T3, Tyrosyl-DNA phosphodiesterase 2 (Homo sapiens, UniProt O95551); test: potency against TDP2 phosphodiesterase activity – biochemical, epi absorbance, IC50, dose response (AID 743297)
T3 sequence (O95551 whole entry): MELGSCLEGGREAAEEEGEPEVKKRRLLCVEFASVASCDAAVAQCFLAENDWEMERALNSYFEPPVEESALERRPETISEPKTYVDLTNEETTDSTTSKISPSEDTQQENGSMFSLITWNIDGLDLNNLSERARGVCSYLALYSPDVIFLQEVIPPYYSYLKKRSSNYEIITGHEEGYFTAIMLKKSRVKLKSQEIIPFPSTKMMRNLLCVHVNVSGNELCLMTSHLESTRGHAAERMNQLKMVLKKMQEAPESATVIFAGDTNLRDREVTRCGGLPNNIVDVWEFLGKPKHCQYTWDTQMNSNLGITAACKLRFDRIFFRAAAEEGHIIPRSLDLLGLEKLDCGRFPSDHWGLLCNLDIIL

Chain of Megakaryocyte-associated tyrosine-protein kinase (P42679 whole entry): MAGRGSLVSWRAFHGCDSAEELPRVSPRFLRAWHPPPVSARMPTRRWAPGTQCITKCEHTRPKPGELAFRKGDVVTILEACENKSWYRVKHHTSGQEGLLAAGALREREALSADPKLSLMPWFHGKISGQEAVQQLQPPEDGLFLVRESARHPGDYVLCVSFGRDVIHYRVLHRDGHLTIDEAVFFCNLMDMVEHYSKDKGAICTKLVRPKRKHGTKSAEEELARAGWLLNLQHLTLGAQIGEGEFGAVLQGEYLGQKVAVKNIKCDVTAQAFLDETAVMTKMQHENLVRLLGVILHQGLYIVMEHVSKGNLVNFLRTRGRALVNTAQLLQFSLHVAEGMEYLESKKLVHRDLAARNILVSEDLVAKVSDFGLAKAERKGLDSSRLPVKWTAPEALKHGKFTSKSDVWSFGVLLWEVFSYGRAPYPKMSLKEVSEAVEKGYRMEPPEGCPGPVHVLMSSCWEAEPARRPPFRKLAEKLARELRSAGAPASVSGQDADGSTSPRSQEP
Chain of Casein kinase II subunit alpha (P68400 whole entry): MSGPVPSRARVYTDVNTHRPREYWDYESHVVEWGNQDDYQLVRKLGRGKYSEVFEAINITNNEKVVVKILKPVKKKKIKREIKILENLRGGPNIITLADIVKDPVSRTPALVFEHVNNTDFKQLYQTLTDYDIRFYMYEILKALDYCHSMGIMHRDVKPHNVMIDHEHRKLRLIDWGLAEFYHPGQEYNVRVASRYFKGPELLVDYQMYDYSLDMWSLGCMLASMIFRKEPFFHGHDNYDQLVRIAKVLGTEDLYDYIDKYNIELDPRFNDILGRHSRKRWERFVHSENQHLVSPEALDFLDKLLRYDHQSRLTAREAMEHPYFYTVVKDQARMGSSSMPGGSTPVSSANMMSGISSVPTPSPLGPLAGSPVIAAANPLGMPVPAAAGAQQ
Chain of Proto-oncogene tyrosine-protein kinase Src (P12931 2-536 limits assumed): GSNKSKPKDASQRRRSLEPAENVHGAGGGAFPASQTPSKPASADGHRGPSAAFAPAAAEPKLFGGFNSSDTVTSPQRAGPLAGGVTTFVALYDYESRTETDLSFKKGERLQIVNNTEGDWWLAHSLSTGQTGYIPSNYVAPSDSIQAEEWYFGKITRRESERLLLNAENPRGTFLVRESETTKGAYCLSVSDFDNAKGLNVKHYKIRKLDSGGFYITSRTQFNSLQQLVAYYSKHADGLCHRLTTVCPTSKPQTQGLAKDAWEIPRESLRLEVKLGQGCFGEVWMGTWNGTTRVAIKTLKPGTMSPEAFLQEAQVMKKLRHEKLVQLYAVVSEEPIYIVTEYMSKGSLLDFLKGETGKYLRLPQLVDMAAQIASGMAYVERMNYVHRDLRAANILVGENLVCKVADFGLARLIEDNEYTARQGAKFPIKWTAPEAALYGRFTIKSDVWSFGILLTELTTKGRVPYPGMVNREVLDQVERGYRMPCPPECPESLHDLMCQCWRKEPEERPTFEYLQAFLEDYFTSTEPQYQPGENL
Chain of Tyrosine-protein kinase BTK (Q06187 whole entry): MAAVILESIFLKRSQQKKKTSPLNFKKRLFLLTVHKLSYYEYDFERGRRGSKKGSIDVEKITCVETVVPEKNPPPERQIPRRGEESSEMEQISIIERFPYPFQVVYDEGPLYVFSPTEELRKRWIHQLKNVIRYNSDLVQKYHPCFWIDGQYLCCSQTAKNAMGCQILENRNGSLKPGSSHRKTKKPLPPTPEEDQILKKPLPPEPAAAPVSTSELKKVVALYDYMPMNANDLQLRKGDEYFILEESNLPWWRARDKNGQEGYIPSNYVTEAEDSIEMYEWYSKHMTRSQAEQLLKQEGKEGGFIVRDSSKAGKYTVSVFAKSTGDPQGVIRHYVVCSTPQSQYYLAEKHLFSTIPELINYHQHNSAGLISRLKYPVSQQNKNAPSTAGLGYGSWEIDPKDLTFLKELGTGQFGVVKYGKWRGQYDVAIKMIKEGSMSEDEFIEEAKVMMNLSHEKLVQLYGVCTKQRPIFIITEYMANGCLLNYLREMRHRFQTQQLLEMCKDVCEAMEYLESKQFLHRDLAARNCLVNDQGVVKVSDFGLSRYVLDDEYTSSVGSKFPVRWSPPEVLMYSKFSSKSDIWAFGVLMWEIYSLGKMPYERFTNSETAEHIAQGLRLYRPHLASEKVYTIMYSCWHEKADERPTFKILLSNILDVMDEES
Chain of Estrogen receptor beta (Q92731 whole entry): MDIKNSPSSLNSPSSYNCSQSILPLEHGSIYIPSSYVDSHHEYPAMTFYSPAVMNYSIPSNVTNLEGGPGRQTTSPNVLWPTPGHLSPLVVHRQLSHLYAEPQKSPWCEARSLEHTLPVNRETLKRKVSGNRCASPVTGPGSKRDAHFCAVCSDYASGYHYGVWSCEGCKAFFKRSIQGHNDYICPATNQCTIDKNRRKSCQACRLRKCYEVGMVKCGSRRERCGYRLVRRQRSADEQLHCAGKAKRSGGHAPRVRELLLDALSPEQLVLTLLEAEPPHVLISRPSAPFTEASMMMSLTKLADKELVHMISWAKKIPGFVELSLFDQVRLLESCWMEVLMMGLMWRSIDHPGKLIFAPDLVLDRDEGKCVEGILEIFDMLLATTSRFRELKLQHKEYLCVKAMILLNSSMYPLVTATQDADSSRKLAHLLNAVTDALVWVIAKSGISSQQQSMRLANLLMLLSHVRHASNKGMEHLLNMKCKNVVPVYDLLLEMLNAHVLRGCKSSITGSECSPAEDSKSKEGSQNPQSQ
Chain of Tyrosine-protein kinase receptor UFO (P30530 whole entry): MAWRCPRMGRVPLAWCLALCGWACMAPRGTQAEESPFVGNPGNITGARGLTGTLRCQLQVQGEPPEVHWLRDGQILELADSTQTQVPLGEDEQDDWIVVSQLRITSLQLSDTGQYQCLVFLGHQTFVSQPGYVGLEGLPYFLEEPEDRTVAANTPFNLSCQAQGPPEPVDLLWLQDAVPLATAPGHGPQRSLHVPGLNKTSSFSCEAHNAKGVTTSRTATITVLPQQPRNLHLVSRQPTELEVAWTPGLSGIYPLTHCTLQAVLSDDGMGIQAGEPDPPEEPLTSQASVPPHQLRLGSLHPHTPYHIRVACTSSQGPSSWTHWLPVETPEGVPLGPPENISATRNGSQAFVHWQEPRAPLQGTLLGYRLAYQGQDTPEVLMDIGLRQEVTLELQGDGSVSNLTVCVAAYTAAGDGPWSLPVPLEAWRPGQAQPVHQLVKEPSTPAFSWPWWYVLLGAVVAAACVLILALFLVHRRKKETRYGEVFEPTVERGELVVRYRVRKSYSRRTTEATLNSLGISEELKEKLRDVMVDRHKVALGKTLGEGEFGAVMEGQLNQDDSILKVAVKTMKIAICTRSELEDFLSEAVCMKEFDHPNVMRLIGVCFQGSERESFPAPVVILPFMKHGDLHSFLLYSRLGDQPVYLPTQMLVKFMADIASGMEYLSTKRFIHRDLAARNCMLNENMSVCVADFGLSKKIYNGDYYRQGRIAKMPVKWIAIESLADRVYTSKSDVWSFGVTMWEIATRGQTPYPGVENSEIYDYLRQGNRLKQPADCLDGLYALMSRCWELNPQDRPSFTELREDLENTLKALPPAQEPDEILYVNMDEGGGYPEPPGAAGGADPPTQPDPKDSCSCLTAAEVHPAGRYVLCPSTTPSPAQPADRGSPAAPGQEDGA
Chain of 5'-AMP-activated protein kinase catalytic subunit alpha-1 (Q13131 whole entry): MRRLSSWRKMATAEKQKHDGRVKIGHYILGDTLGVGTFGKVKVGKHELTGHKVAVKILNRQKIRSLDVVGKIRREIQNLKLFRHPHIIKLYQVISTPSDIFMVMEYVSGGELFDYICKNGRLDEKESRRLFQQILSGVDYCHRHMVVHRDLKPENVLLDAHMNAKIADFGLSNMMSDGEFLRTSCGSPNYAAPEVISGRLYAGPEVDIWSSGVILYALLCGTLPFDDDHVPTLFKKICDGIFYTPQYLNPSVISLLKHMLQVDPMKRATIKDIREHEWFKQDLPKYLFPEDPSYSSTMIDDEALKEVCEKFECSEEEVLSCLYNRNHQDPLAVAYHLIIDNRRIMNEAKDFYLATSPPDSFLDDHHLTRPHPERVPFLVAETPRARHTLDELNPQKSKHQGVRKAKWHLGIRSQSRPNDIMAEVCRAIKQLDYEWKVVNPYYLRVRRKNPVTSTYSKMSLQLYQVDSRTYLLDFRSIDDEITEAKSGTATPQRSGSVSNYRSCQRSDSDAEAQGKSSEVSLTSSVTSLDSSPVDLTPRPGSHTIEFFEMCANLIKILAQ
Chain of Large T antigen (P03070 whole entry): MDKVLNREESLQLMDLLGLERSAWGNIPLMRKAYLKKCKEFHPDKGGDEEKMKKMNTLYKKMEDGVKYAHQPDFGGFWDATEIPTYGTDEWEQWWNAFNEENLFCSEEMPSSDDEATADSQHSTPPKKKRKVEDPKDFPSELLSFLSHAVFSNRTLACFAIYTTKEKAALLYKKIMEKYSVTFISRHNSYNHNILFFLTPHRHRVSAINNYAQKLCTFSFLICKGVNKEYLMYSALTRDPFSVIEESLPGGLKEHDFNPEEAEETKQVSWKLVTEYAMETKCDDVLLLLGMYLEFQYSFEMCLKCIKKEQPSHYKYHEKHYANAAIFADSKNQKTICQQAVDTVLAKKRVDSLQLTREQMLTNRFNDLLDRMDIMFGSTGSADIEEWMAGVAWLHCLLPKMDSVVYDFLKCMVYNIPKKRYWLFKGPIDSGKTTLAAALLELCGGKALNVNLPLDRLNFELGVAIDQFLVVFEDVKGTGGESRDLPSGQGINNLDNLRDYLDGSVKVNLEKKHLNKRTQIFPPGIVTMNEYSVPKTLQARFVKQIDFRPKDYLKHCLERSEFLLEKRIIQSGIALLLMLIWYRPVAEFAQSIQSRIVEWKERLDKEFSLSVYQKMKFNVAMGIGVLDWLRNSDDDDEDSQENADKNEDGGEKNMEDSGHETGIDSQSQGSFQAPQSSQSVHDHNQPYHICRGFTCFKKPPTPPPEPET

In the case of `O=C1Nc2ccc3ncsc3c2C1=CNc1ccc(S(=O)(=O)Nc2ccccn2)cc1`, the Ki [1] is reported as 200 nM (active), the Ki [2] is reported as 3.98 nM (active) and the Ki [3] is reported as 12.6 nM (active). The Ki [4] was 79.4 nM (active), the Ki [5] was 126 nM (active) and the Ki [6] was 79.4 nM (active). For the same compound, the Ki [7] was 501 nM (active), the Ki [8] was 79.4 nM (active) and the Ki [9] was 158 nM (active). The Ki [10] was 20 nM (active).
`Oc1ccc(-c2cn3c(n2)SCC3)cc1O` was tested, and the IC50 [11] was 9740 nM (active) and the IC50 [12] was 10700 nM (not active).
With `CC(=O)N(C1=C(Cl)C(=O)c2ccccc2C1=O)C1CCCCC1` the EC50 [13] was > 150000 nM (not active), the IC50 [14] was 7150 nM (active) and the CC50 [15] was 22400 nM (active). The CC50 [16] was 13300 nM (active), the IC50 [17] was 3020 nM (active) and the IC50 [18] was 19500 nM (inactive).
